Oligonucleotides are written 5' to 3', each unit as a sugar letter and its base; * is a phosphorothioate linkage, no mark a phosphodiester; rarer units and linkages stand in square brackets, end groups in braces. Plain capitals give the bases only. Oligonucleotides are given in HELM: sugar(base)linkage, 5' to 3'; d 2'-deoxyribose, r ribose, m 2'-O-methylribose, p phosphate. ss, as = sense and antisense strand; d = 2'-deoxy (DNA); r = 2'-OH (RNA)
Further: test concentration or dose not given here.

The target in the first data set is UBE2D3. Put plainly: reporter assay of Huesken 2005. The settings on record: siRNA.
As to “RNA1{r(C)p.r(A)p.r(U)p.r(U)p.r(U)p.r(A)p.r(C)p.r(A)p.r(A)p.r(C)p.r(A)p.r(A)p.r(G)p.r(A)p.r(A)p.r(U)p.r(U)p.r(U)p.r(A)p.d(T)p.d(T)}|RNA2{r(U)p.r(A)p.r(A)p.r(A)p.r(U)p.r(U)p.r(C)p.r(U)p.r(U)p.r(G)p.r(U)p.r(U)p.r(G)p.r(U)p.r(A)p.r(A)p.r(A)p.r(U)p.r(G)p.d(C)p.d(A)}$$$RNA1{StrandType:ss}|RNA2{StrandType:as}$”, the normalised inhibition (eCFP-eYFP dual reporter) was 70%.
On the same count and under the same terms, in the case of “RNA1{r(C)p.r(C)p.r(U)p.r(U)p.r(C)p.r(A)p.r(A)p.r(A)p.r(C)p.r(C)p.r(A)p.r(C)p.r(C)p.r(U)p.r(A)p.r(A)p.r(G)p.r(G)p.r(U)p.d(T)p.d(T)}|RNA2{r(A)p.r(C)p.r(C)p.r(U)p.r(U)p.r(A)p.r(G)p.r(G)p.r(U)p.r(G)p.r(G)p.r(U)p.r(U)p.r(U)p.r(G)p.r(A)p.r(A)p.r(G)p.r(G)p.d(G)p.d(G)}$$$RNA1{StrandType:ss}|RNA2{StrandType:as}$” it was 94.5%; in that of “RNA1{r(A)p.r(C)p.r(U)p.r(A)p.r(C)p.r(C)p.r(C)p.r(C)p.r(U)p.r(U)p.r(C)p.r(A)p.r(A)p.r(A)p.r(C)p.r(C)p.r(A)p.r(C)p.r(C)p.d(T)p.d(T)}|RNA2{r(G)p.r(G)p.r(U)p.r(G)p.r(G)p.r(U)p.r(U)p.r(U)p.r(G)p.r(A)p.r(A)p.r(G)p.r(G)p.r(G)p.r(G)p.r(U)p.r(A)p.r(G)p.r(U)p.d(C)p.d(T)}$$$RNA1{StrandType:ss}|RNA2{StrandType:as}$”, 63.1%; in that of “RNA1{r(A)p.r(U)p.r(U)p.r(A)p.r(A)p.r(C)p.r(A)p.r(G)p.r(U)p.r(A)p.r(A)p.r(U)p.r(G)p.r(G)p.r(C)p.r(A)p.r(G)p.r(C)p.r(A)p.d(T)p.d(T)}|RNA2{r(U)p.r(G)p.r(C)p.r(U)p.r(G)p.r(C)p.r(C)p.r(A)p.r(U)p.r(U)p.r(A)p.r(C)p.r(U)p.r(G)p.r(U)p.r(U)p.r(A)p.r(A)p.r(U)p.d(A)p.d(T)}$$$RNA1{StrandType:ss}|RNA2{StrandType:as}$”, 57.6%.
Regarding “RNA1{r(A)p.r(G)p.r(C)p.r(A)p.r(C)p.r(A)p.r(A)p.r(U)p.r(G)p.r(U)p.r(U)p.r(C)p.r(U)p.r(G)p.r(C)p.r(A)p.r(G)p.r(G)p.r(U)p.d(T)p.d(T)}|RNA2{r(A)p.r(C)p.r(C)p.r(U)p.r(G)p.r(C)p.r(A)p.r(G)p.r(A)p.r(A)p.r(C)p.r(A)p.r(U)p.r(U)p.r(G)p.r(U)p.r(G)p.r(C)p.r(U)p.d(G)p.d(G)}$$$RNA1{StrandType:ss}|RNA2{StrandType:as}$”, the normalised inhibition (eCFP-eYFP dual reporter) worked out at 102%.
As to “RNA1{r(U)p.r(G)p.r(C)p.r(U)p.r(U)p.r(U)p.r(A)p.r(A)p.r(C)p.r(A)p.r(A)p.r(U)p.r(U)p.r(U)p.r(C)p.r(U)p.r(A)p.r(A)p.r(A)p.d(T)p.d(T)}|RNA2{r(U)p.r(U)p.r(U)p.r(A)p.r(G)p.r(A)p.r(A)p.r(A)p.r(U)p.r(U)p.r(G)p.r(U)p.r(U)p.r(A)p.r(A)p.r(A)p.r(G)p.r(C)p.r(A)p.d(G)p.d(G)}$$$RNA1{StrandType:ss}|RNA2{StrandType:as}$”, the normalised inhibition (eCFP-eYFP dual reporter) came to 92%.
The same measure, in the same setting: to “RNA1{r(U)p.r(G)p.r(C)p.r(U)p.r(A)p.r(U)p.r(G)p.r(U)p.r(G)p.r(A)p.r(U)p.r(C)p.r(C)p.r(A)p.r(A)p.r(A)p.r(C)p.r(C)p.r(C)p.d(T)p.d(T)}|RNA2{r(G)p.r(G)p.r(G)p.r(U)p.r(U)p.r(U)p.r(G)p.r(G)p.r(A)p.r(U)p.r(C)p.r(A)p.r(C)p.r(A)p.r(U)p.r(A)p.r(G)p.r(C)p.r(A)p.d(G)p.d(T)}$$$RNA1{StrandType:ss}|RNA2{StrandType:as}$” belongs 42.2%; to “RNA1{r(G)p.r(G)p.r(C)p.r(A)p.r(A)p.r(G)p.r(C)p.r(C)p.r(A)p.r(C)p.r(A)p.r(A)p.r(U)p.r(U)p.r(A)p.r(U)p.r(G)p.r(G)p.r(G)p.d(T)p.d(T)}|RNA2{r(C)p.r(C)p.r(C)p.r(A)p.r(U)p.r(A)p.r(A)p.r(U)p.r(U)p.r(G)p.r(U)p.r(G)p.r(G)p.r(C)p.r(U)p.r(U)p.r(G)p.r(C)p.r(C)p.d(A)p.d(A)}$$$RNA1{StrandType:ss}|RNA2{StrandType:as}$”, 60.2%.

The target of the next data set is UBE2W. Nature of the data set: reporter assay of Huesken 2005. The settings on record: siRNA. On the technique in general: A reporter such as luciferase makes a cellular process visible.
For “sense rArGrArArGrArCrUrGrGrUrCrCrCrCrArGrCrGdTdT / antisense rCrGrCrUrGrGrGrGrArCrCrArGrUrCrUrUrCrUdGdT”, the normalised inhibition (eCFP-eYFP dual reporter) came to 88.4%.
The same measure, in the same setting: in the case of “sense rUrCrUrArArCrArGrArArGrArCrUrGrGrUrCrCdTdT / antisense rGrGrArCrCrArGrUrCrUrUrCrUrGrUrUrArGrAdAdT” it was 73.3%; in that of “sense rUrArUrCrUrGrUrUrUrArUrCrCrArUrUrCrUrAdTdT / antisense rUrArGrArArUrGrGrArUrArArArCrArGrArUrAdTdG”, 85.9%; in that of “sense rArArUrCrArGrUrUrUrGrUrCrUrUrArGrCrArUdTdT / antisense rArUrGrCrUrArArGrArCrArArArCrUrGrArUrUdGdG”, 104%.
Regarding “sense rGrCrArArGrGrArArArArGrArGrArCrGrArCrCdTdT / antisense rGrGrUrCrGrUrCrUrCrUrUrUrUrCrCrUrUrGrCdAdG”, the normalised inhibition (eCFP-eYFP dual reporter) was 112%.
Regarding “sense rArUrCrCrUrCrArUrGrUrUrUrArUrArGrCrArAdTdT / antisense rUrUrGrCrUrArUrArArArCrArUrGrArGrGrArUdGdA”, the normalised inhibition (eCFP-eYFP dual reporter) came to 104%.
The same measure, in the same setting: in the case of “sense rCrUrCrCrUrGrGrArArUrGrArCrCrUrUrArArAdTdT / antisense rUrUrUrArArGrGrUrCrArUrUrCrCrArGrGrArGdGdT” it was 100%; in that of “sense rUrArUrUrCrCrUrGrUrUrCrArUrCrCrUrCrArUdTdT / antisense rArUrGrArGrGrArUrGrArArCrArGrGrArArUrAdTdT”, 104%.
“sense rUrUrUrArArArUrUrUrArGrUrArGrUrCrGrArUdTdT / antisense rArUrCrGrArCrUrArCrUrArArArUrUrUrArArAdTdA”: the normalised inhibition (eCFP-eYFP dual reporter) was 88%.
Turning to “sense rArArGrArGrArCrGrArCrCrArCrCrGrGrArUrAdTdT / antisense rUrArUrCrCrGrGrUrGrGrUrCrGrUrCrUrCrUrUdTdT”, the normalised inhibition (eCFP-eYFP dual reporter) stood at 82.7%.
The same measure, in the same setting: in the case of “sense rGrCrGrCrUrCrUrCrArGrUrCrCrArArUrCrArGdTdT / antisense rCrUrGrArUrUrGrGrArCrUrGrArGrArGrCrGrCdTdG” it was 109%; in that of “sense rUrGrGrArArUrGrArCrCrUrUrArArArUrGrArGdTdT / antisense rCrUrCrArUrUrUrArArGrGrUrCrArUrUrCrCrAdGdG”, 96.4%.
On the same count and under the same terms, to “sense rArArArArUrArUrUrCrCrUrGrUrUrCrArUrCrCdTdT / antisense rGrGrArUrGrArArCrArGrGrArArUrArUrUrUrUdCdA” belongs 53.5%; to “sense rUrArUrCrCrArUrUrCrUrArArCrArGrArArGrAdTdT / antisense rUrCrUrUrCrUrGrUrUrArGrArArUrGrGrArUrAdAdA”, 83.9%.
Consider “sense rCrUrGrUrUrCrArUrCrCrUrCrArUrGrUrUrUrAdTdT / antisense rUrArArArCrArUrGrArGrGrArUrGrArArCrArGdGdA”, for which the normalised inhibition (eCFP-eYFP dual reporter) came to 113%.
As for “sense rArGrUrArGrUrCrGrArUrArUrCrCrUrUrUrUrGdTdT / antisense rCrArArArArGrGrArUrArUrCrGrArCrUrArCrUdAdA”, the normalised inhibition (eCFP-eYFP dual reporter) came out at 124%.
Same read-out and setting: to “sense rGrArCrCrArCrCrGrGrArUrArArUrUrCrUrUrUdTdT / antisense rArArArGrArArUrUrArUrCrCrGrGrUrGrGrUrCdGdT” belongs 96.4%; to “sense rArCrCrArCrCrGrGrArUrArArUrUrCrUrUrUrUdTdT / antisense rArArArArGrArArUrUrArUrCrCrGrGrUrGrGrUdCdG”, 96.7%.
On to “sense rGrUrGrArArArArUrArUrUrCrCrUrGrUrUrCrAdTdT / antisense rUrGrArArCrArGrGrArArUrArUrUrUrUrCrArCdCdA”, for which the normalised inhibition (eCFP-eYFP dual reporter) was found to be 82%.
Take “sense rGrArCrArUrGrGrArArGrGrUrGrCrArCrCrArGdTdT / antisense rCrUrGrGrUrGrCrArCrCrUrUrCrCrArUrGrUrCdTdA”: the normalised inhibition (eCFP-eYFP dual reporter) is 94.9%.
Still for that read-out and setting: in the case of “sense rArUrCrArGrUrUrUrGrUrCrUrUrArGrCrArUrUdTdT / antisense rArArUrGrCrUrArArGrArCrArArArCrUrGrArUdTdG” it was 107%; in that of “sense rGrUrUrCrArArArArUrUrCrArArUrUrArCrArCdTdT / antisense rGrUrGrUrArArUrUrGrArArUrUrUrUrGrArArCdAdC”, 73.6%; in that of “sense rCrGrArUrArUrCrCrUrUrUrUrGrArCrUrCrUrCdTdT / antisense rGrArGrArGrUrCrArArArArGrGrArUrArUrCrGdAdC”, 85.7%.
As for “sense rUrGrCrArCrCrArGrGrUrArCrCrUrUrArUrArUdTdT / antisense rArUrArUrArArGrGrUrArCrCrUrGrGrUrGrCrAdCdC”, the normalised inhibition (eCFP-eYFP dual reporter) is 78%.
The same measure, in the same setting: to “sense rArCrArGrUrGrGrArUrUrGrUrArGrArCrArUrGdTdT / antisense rCrArUrGrUrCrUrArCrArArUrCrCrArCrUrGrUdGdT” belongs 110%.
On to “sense rUrArGrArCrArUrGrGrArArGrGrUrGrCrArCrCdTdT / antisense rGrGrUrGrCrArCrCrUrUrCrCrArUrGrUrCrUrAdCdA”, for which the normalised inhibition (eCFP-eYFP dual reporter) is 38.9%.
Still for that read-out and setting: in the case of “sense rUrCrCrUrUrUrUrGrArCrUrCrUrCrCrUrCrArGdTdT / antisense rCrUrGrArGrGrArGrArGrUrCrArArArArGrGrAdTdA” it was 78.4%; in that of “sense rUrUrArCrArCrArGrUrGrGrArUrUrGrUrArGrAdTdT / antisense rUrCrUrArCrArArUrCrCrArCrUrGrUrGrUrArAdTdT”, 92.6%.
On the same count and under the same terms, to “sense rGrArArGrArCrUrGrGrUrCrCrCrCrArGrCrGrCdTdT / antisense rGrCrGrCrUrGrGrGrGrArCrCrArGrUrCrUrUrCdTdG” belongs 80.5%.

Source of the values: the OligoGym collection.
